Source: PMC8279409, “Novel Mixed NOP/Opioid Receptor Peptide Agonists” (Journal of Medicinal Chemistry, 2021)
Values joined by “and” are separate entries in the source; they are usually repeats but may differ in a detail not shown here. Equal values may be shown once. Read-outs that look alike come from different tables or passages of the source. Where a SMILES comes first, the peptide text is derived from it. Where no end group is shown, it is not given here. [ ]: non-standard residue; d: D form. Phe(4-NH2) = Nc1ccc(C[C@H](N)C(=O)O)cc1; 1Nal = N[C@@H](Cc1cccc2ccccc12)C(=O)O; Dmt = Cc1cc(O)cc(C)c1C[C@H](N)C(=O)O; Phg = N[C@H](C(=O)O)c1ccccc1

Tests used:
human NOP receptor = target: T1, human NOP receptor (Homo sapiens, UniProt P41146); assay: Calcium mobilization, NOP receptor; assay type: cell-based; details: for Emax: mean ± SEM of at least three experiments in duplicate, SEM; for NOP pEC50 (CL95%): CHO cells coexpressing human NOP and Gαqi5, Fluo-4 AM, 37 °C, mean of at least three experiments in duplicate, CL95% in brackets; for NOP/mu CR (concentration ratio): calcium mobilization, NOP versus mu
T1 construct: expressed in transfected cells; host or cells: CHO cells stably coexpressing the receptor and chimeric Gαqi5
Description: CHO cells stably coexpressing the human NOP or kappa or the mu receptor and the C-terminally modified Gαqi5 and CHO cells coexpressing the delta receptor and the GαqG66Di5 protein were generated and cultured as described previously.[45],[46] Cells were maintained in Dulbecco’s modified Eagle’s medium/nutrient mixture F-12 (DEMEM/F-12) supplemented with 10% FBS, 100 U/mL penicillin and 100 μg/mL streptomycin, 100 μg/mL hygromicin B, and 200 μg/mL G418 and cultured at 37 °C in 5% CO2 humidified air. Cells were seeded at a density of 50,000 cells/well into 96-well black, clear-bottom plates. The following day, the cells were incubated with Hanks’ balanced salt solution (HBSS) supplemented with 2.5 mM probenecid, 3 μM of the calcium-sensitive fluorescent dye Fluo-4 AM, and 0.01% pluronic acid for 30 min at 37 °C. After that time, the loading solution was aspirated and 100 μL/well of HBSS supplemented with 20 mM HEPES, 2.5 mM probenecid, and 500 μM brilliant black was added. Serial dilutions were carried out in HBSS/HEPES (20 mM) buffer (containing 0.02% BSA fraction V). After placing both plates (cell culture and master plate) into the fluorometric imaging plate reader FlexStation II (Molecular Devices, Sunnyvale, CA), fluorescence changes were measured. On-line additions were carried out in a volume of 50 μL/well. To facilitate drug diffusion into the wells, the present studies were performed at 37 °C. Maximum change in fluorescence, expressed as percent over the baseline fluorescence, was used to determine agonist response.
The pharmacological terminology adopted in this paper is consistent with IUPHAR recommendations.[59] All data are expressed as the mean ± standard error of the mean (SEM) of at least three experiments performed in duplicate. […] Concentration-response curves to agonists were fitted to the classical four-parameter logistic nonlinear regression model:
Effect = Baseline + (Emax – Baseline)/(1 + 10^(LogEC50 – Log[compound]) × Hillslope). Curve fitting was performed using PRISM 6.0 (GraphPad Software Inc., San Diego).

human mu receptor = target: T2, human mu receptor (Homo sapiens, UniProt P35372); assay: Calcium mobilization, mu opioid receptor; assay type: cell-based; details: for Emax / activation at 10 µM: percent over the baseline fluorescence, SEM; for Emax: mean ± SEM of at least three experiments in duplicate; for mu pEC50 (CL95%): CHO cells coexpressing human mu receptor and Gαqi5, Fluo-4 AM, 37 °C, mean of at least three experiments in duplicate, CL95% in brackets; for pEC50_mu: molecular formula strings CSV, repeats calcium mobilization values of Tables 1-3; for activation at 10 µM: mean ± SEM
T2 construct: expressed in transfected cells; host or cells: CHO cells stably coexpressing the receptor and chimeric Gαqi5

[1] = read-out: NOP Emax ± S.E.M., Table 3 series, percent over the baseline fluorescence
[2] = read-out: mu Emax ± S.E.M., Table 3 series
[3] = read-out: NOP Emax ± S.E.M., Table 2 series, percent over the baseline fluorescence
[4] = read-out: mu effect at 10 μM (crc incomplete), Table 2 series
[5] = read-out: NOP Emax ± S.E.M., Table 1 series, maximum change in fluorescence as percent over the baseline fluorescence
[6] = read-out: mu effect at 10 μM (crc incomplete), Table 1 series
[7] = read-out: mu Emax ± S.E.M, Table 1 series

T2 sequence (P35372 whole entry): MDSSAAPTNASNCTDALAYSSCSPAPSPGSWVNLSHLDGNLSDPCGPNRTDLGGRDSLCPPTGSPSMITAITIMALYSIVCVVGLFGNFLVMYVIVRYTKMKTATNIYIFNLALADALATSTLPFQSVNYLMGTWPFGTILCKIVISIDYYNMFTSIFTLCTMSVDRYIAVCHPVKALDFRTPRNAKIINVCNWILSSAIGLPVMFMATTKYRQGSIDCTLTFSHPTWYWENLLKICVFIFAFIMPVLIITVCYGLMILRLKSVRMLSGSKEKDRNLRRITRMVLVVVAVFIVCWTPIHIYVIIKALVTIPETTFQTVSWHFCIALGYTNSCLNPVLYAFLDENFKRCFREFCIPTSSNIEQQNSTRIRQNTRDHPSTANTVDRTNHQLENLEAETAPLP
T1 sequence (P41146 whole entry): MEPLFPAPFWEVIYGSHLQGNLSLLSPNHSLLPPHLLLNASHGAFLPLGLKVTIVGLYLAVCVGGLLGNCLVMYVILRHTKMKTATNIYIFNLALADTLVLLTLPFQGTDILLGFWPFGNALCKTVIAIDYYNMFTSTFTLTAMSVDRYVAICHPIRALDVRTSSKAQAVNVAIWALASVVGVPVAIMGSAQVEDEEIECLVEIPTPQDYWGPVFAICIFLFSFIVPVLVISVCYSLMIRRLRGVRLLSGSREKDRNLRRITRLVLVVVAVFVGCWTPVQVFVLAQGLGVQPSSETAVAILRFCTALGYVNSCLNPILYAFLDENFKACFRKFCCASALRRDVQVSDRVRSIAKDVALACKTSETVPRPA

Cc1cc(O)cc(C)c1C[C@H](N)C(=O)NCC(=O)NCC(=O)N[C@@H](Cc1ccccc1)C(=O)N[C@@H](Cc1ccccc1)C(=O)NCC(=O)N[C@@H](C)C(=O)N[C@@H](CCCNC(=N)N)C(=O)N[C@@H](CCCCN)C(=O)N[C@@H](CO)C(=O)N[C@@H](C)C(=O)N[C@@H](CCCNC(=N)N)C(=O)N[C@@H](CCCCN)C(N)=O [Compound 31, [Dmt^1,Phe^5]N/OFQ(1-13)-NH2] (H-[Dmt]GGFFGARKSARK-NH2)
Emax (human NOP receptor; [1]): 277 ± 28% | Emax (human mu receptor; [2]): 335 ± 22%

Cc1cc(O)cc(C)c1C[C@H](N)C(=O)NCC(=O)NCC(=O)N[C@@H](Cc1ccccc1)C(=O)N[C@H](C(=O)NCC(=O)N[C@@H](C)C(=O)N[C@@H](CCCNC(=N)N)C(=O)N[C@@H](CCCCN)C(=O)N[C@@H](CO)C(=O)N[C@@H](C)C(=O)N[C@@H](CCCNC(=N)N)C(=O)N[C@@H](CCCCN)C(N)=O)c1ccccc1 [Compound 32, [Dmt^1,Phg^5]N/OFQ(1-13)-NH2] (H-[Dmt]GGF[Phg]GARKSARK-NH2)
Emax (human NOP receptor; [1]): 282 ± 12% | Emax (human mu receptor; [2]): 339 ± 28%

Cc1cc(O)cc(C)c1C[C@H](N)C(=O)NCC(=O)NCC(=O)N[C@@H](Cc1ccccc1)C(=O)N[C@@H](Cc1cccc2ccccc12)C(=O)NCC(=O)N[C@@H](C)C(=O)N[C@@H](CCCNC(=N)N)C(=O)N[C@@H](CCCCN)C(=O)N[C@@H](CO)C(=O)N[C@@H](C)C(=O)N[C@@H](CCCNC(=N)N)C(=O)N[C@@H](CCCCN)C(N)=O [Compound 33, [Dmt^1,1Nal^5]N/OFQ(1-13)-NH2] (H-[Dmt]GGF[1Nal]GARKSARK-NH2)
Emax (human NOP receptor; [1]): 286 ± 19% | Emax (human mu receptor; [2]): 349 ± 20%

Cc1cc(O)cc(C)c1C[C@H](N)C(=O)NCC(=O)NCC(=O)N[C@@H](Cc1ccccc1)C(=O)N[C@@H](Cc1ccc(N)cc1)C(=O)NCC(=O)N[C@@H](C)C(=O)N[C@@H](CCCNC(=N)N)C(=O)N[C@@H](CCCCN)C(=O)N[C@@H](CO)C(=O)N[C@@H](C)C(=O)N[C@@H](CCCNC(=N)N)C(=O)N[C@@H](CCCCN)C(N)=O [Compound 34, [Dmt^1,(pNH2)Phe^5]N/OFQ(1-13)-NH2] (H-[Dmt]GGF[Phe(4-NH2)]GARKSARK-NH2)
Emax (human NOP receptor; [1]): 258 ± 20% | Emax (human mu receptor; [2]): 358 ± 15%

Cc1cc(O)cc(C)c1C[C@H](NC(=O)[C@H](Cc1ccccc1)NC(=O)CNC(=O)CNC(=O)[C@@H](N)Cc1c(C)cc(O)cc1C)C(=O)NCC(=O)N[C@@H](C)C(=O)N[C@@H](CCCNC(=N)N)C(=O)N[C@@H](CCCCN)C(=O)N[C@@H](CO)C(=O)N[C@@H](C)C(=O)N[C@@H](CCCNC(=N)N)C(=O)N[C@@H](CCCCN)C(N)=O [Compound 35, [Dmt^1,5]N/OFQ(1-13)-NH2] (H-[Dmt]GGF[Dmt]GARKSARK-NH2)
Emax (human NOP receptor; [1]): 270 ± 25% | Emax (human mu receptor; [2]): 354 ± 16%

YGGFFGARKSARK-NH2 [Compound 15, [Tyr^1,Phe^5]N/OFQ(1-13)-NH2]
NOP pEC50 (CL95%) (human NOP receptor; Table 2 series): 7.72 (7.56–7.87) | NOP/mu CR (concentration ratio) (human NOP receptor; Table 2 series): 0.05 | Emax (human NOP receptor; [3]): 242 ± 11% | mu pEC50 (CL95%) (human mu receptor; Table 2 series): 6.41 (5.85–6.97) | Emax (human mu receptor; read-out: mu Emax ± S.E.M., Table 2 series): 315 ± 32%

YGGFHGARKSARK-NH2 [Compound 16, [Tyr^1,His^5]N/OFQ(1-13)-NH2]
NOP pEC50 (CL95%) (human NOP receptor; Table 2 series): 7.39 (7.16–7.62) | NOP/mu CR (concentration ratio) (human NOP receptor; Table 2 series): 0.05 | Emax (human NOP receptor; [3]): 249 ± 23% | mu pEC50 (CL95%) (human mu receptor; Table 2 series): crc incomplete; 10 μM: 230 ± 37 | pEC50_mu (human mu receptor): crc incomplete | activation at 10 µM (human mu receptor; [4]): 230 ± 37%

YGGFK(Ac)GARKSARK-NH2 [Compound 6, [Tyr^1,Lys(Ac)^5]N/OFQ(1-13)-NH2]
NOP pEC50 (CL95%) (human NOP receptor; Table 1 series, FlexStation II): 8.55 (7.88–9.22) | NOP/mu CR (concentration ratio) (human NOP receptor; Table 1 series): 0.003 | Emax (human NOP receptor; [5]): 370 ± 16% | mu pEC50 (CL95%) (human mu receptor; Table 1 series): crc incomplete; 10 μM: 161 ± 31 | pEC50_mu (human mu receptor): crc incomplete | activation at 10 µM (human mu receptor; [6]): 161 ± 31%

YGGFKGARKSARK-NH2 [Compound 8, [Tyr^1,Lys^5]N/OFQ(1-13)-NH2]
NOP pEC50 (CL95%) (human NOP receptor; Table 1 series, FlexStation II): 7.26 (6.74–7.78) | NOP/mu CR (concentration ratio) (human NOP receptor; Table 1 series): 0.05 | Emax (human NOP receptor; [5]): 366 ± 6% | mu pEC50 (CL95%) (human mu receptor; Table 1 series): crc incomplete; 10 μM: 113 ± 35 | pEC50_mu (human mu receptor): crc incomplete | activation at 10 µM (human mu receptor; [6]): 113 ± 35%

YGGFLGARKSARK-NH2 [Compound 11, [Tyr^1,Leu^5]N/OFQ(1-13)-NH2]
NOP pEC50 (CL95%) (human NOP receptor; Table 1 series, FlexStation II): 8.03 (7.46–8.60) | NOP/mu CR (concentration ratio) (human NOP receptor; Table 1 series): 0.01 | Emax (human NOP receptor; [5]): 339 ± 24% | mu pEC50 (CL95%) (human mu receptor; Table 1 series): 6.08 (5.95–6.21) | Emax (human mu receptor; [7]): 339 ± 25%

YGGFNGARKSARK-NH2 [Compound 4, [Tyr^1,Asn^5]N/OFQ(1-13)-NH2]
NOP pEC50 (CL95%) (human NOP receptor; Table 1 series, FlexStation II): 8.70 (8.26–9.11) | NOP/mu CR (concentration ratio) (human NOP receptor; Table 1 series): 0.002 | Emax (human NOP receptor; [5]): 327 ± 15% | mu pEC50 (CL95%) (human mu receptor; Table 1 series): crc incomplete; 10 μM: 209 ± 29 | pEC50_mu (human mu receptor): crc incomplete | activation at 10 µM (human mu receptor; [6]): 209 ± 29%

YGGFTGARKSARK-NH2 [Compound 3, [Tyr^1]N/OFQ(1-13)-NH2, reference compound] [listing 1 of 2 here]
EC50 (human NOP receptor): 0.741 nM and 0.708 nM | EC50 (human mu receptor): 1580 nM

YGGFTGARKSARK-NH2 [Compound 3, [Tyr^1]N/OFQ(1-13)-NH2, reference compound] [listing 2 of 2 here]
NOP pEC50 (CL95%) (human NOP receptor; Table 1 series, FlexStation II): 9.23 (9.07–9.39) | NOP/mu CR (concentration ratio) (human NOP receptor; Table 1 series): 0.001 | NOP/mu CR (concentration ratio) (human NOP receptor; Table 3 series): <0.001 | Emax (human NOP receptor; [5]): 380 ± 11% | Emax (human NOP receptor; [3]): 266 ± 14% | Emax (human NOP receptor; [1]): 236 ± 13% | mu pEC50 (CL95%) (human mu receptor; Table 1 series): crc incomplete; 10 μM: 197 ± 69 | mu pEC50 (CL95%) (human mu receptor; Table 2 series): crc incomplete; 10 μM: 217 ± 29 | pEC50_mu (human mu receptor): crc incomplete | Emax (human mu receptor; [2]): 251 ± 34% | activation at 10 µM (human mu receptor; [6]): 197 ± 69% | activation at 10 µM (human mu receptor; [4]): 217 ± 29%

YGGFVGARKSARK-NH2 [Compound 5, [Tyr^1,Val^5]N/OFQ(1-13)-NH2]
NOP pEC50 (CL95%) (human NOP receptor; Table 1 series, FlexStation II): 8.70 (8.53–8.87) | NOP/mu CR (concentration ratio) (human NOP receptor; Table 1 series): 0.002 | Emax (human NOP receptor; [5]): 334 ± 19% | mu pEC50 (CL95%) (human mu receptor; Table 1 series): crc incomplete; 10 μM: 254 ± 19 | pEC50_mu (human mu receptor): crc incomplete | activation at 10 µM (human mu receptor; [6]): 254 ± 19%

YGGFWGARKSARK-NH2 [Compound 17, [Tyr^1,Trp^5]N/OFQ(1-13)-NH2]
NOP pEC50 (CL95%) (human NOP receptor; Table 2 series): 7.27 (7.19–7.35) | NOP/mu CR (concentration ratio) (human NOP receptor; Table 2 series): 0.07 | Emax (human NOP receptor; [3]): 288 ± 28% | mu pEC50 (CL95%) (human mu receptor; Table 2 series): crc incomplete; 10 μM: 193 ± 31 | pEC50_mu (human mu receptor): crc incomplete | activation at 10 µM (human mu receptor; [4]): 193 ± 31%

YGGFYGARKSARK-NH2 [Compound 14, [Tyr^1,5]N/OFQ(1-13)-NH2]
NOP pEC50 (CL95%) (human NOP receptor; Table 1 series, FlexStation II): 7.07 (6.68–7.46) | NOP/mu CR (concentration ratio) (human NOP receptor; Table 1 series): 0.49 | Emax (human NOP receptor; [5]): 332 ± 19% | mu pEC50 (CL95%) (human mu receptor; Table 1 series): 6.76 (6.34–7.18) | Emax (human mu receptor; [7]): 357 ± 21%
